Key:
[1] = test system: ovariectomized SD rats (rat osteoporosis model), femora; assay: Animal efficacy test of increasing bone density and preventing osteoporosis (ovariectomized rat osteoporosis model); assay type: in vivo; conditions: left femora, 0.1 mg/100 g per day oral gavage, three months, N = 12, x ± s.d.
[2] = Observation of the general state and body weight in ovariectomized rats; assay type: in vivo, SD rats; conditions: daily observation

CCCCC(=O)O[C@H]1CC[C@H]2[C@@H]3CCc4cc(O)ccc4[C@H]3CC[C@]12C [positive control, estradiol valerate]
bone calcium content [1]: 178.2 ± 29.3 mg/g | bone density BMD [1]: 0.207 ± 0.010 g/mL | general state (exterior signs, behaviors, fecal property) compared with the model control group [2]: did not have significant difference in terms of exterior signs, behaviors, fecal property

From US20170014462A1, “BONE AND JOINT PROTECTION COMPOSITION AND USE THEREOF” (INFINITUS (CHINA) COMPANY LTD., priority 2015, published 2017)
